We go through 32 compounds from patent US8492374B2, “Azaazulene compounds” (Industrial Technology Research Institute, priority 2009, dated 2013).

Assay [1] concerns MV4-11 (FLT3-ITD) cell line. In words: In vitro cell activity assay (MTT cell viability, 72 hours). The class given is cell-based. The note with it: Homo sapiens, 72 hours at 37° C., 10,000 cells per well, read-out: IC50 against MV4-11. The protocol:
Human MV4-11 (FLT3-ITD) cell line was obtained from American Tissue Culture Collection (ATCC number: CRL-9591). The cell line was cultured with RPMI 1640 containing 10% fetal bovine serum, 1 mmol/L sodium pyruvate and 10 mmol/L HEPES (pH 7.4). The cell was grown and maintained in a humidified atmosphere at 37° C. and 5% carbon dioxide.
MV4-11 cell was plated in 96-well microtiter plates (10,000 cells per well) and serial dilutions of indicated compounds were added. At the end of the incubation period (72 hours at 37° C.), cell viability was determined by a tetrazolium dye, MTT (3-(4,5-dimethylthiazol-2-yl)-2,5-diphenyl tetrazolium bromide) (Promega, Madison, Wis.). The formazan crystals were dissolved by DMSO, and the absorbance at a wavelength of 600 nm was recorded using an ELISA plate reader. IC50 values were calculated using nonlinear regression and defined as the concentration needed for a 50% reduction in absorbance of treated versus untreated control cells.

The next assay deals with T1, FLT-3 kinase (Homo sapiens, UniProt P36888).
T1 construct: human FLT-3 (Arg571-Ser993); GST (N); purchased Cell Signaling Technology HTScan FLT-3 Kinase Assay Kit; host or cells: baculovirus expression system
T1 sequence (P36888 571-993): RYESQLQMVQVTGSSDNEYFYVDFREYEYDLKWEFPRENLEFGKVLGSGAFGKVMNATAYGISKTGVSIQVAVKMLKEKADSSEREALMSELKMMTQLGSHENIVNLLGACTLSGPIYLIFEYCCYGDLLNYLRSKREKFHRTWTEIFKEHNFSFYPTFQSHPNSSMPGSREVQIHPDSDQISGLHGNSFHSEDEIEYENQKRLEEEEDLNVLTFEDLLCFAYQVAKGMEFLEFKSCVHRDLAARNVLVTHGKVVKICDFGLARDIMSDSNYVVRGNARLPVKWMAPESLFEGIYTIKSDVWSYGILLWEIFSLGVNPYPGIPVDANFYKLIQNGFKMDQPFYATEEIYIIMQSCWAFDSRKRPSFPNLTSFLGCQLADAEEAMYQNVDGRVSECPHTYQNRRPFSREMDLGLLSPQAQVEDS
Description: FLT-3 kinase DELFIA assay (HTScan FLT-3 Kinase Assay Kit). It counts as biochemical. The note with it: 20 uM ATP; for inhibition at 0.1 µM: 0.1 uM compound; for inhibition at 1 µM: 1 uM compound. The protocol:
(§1) Azaazulene Compounds of this invention were treated for their efficacy in inhibiting activities of FLT-3, c-KIT and KDR kinases by biochemical DELFIA (Dissociation Enhanced Lanthanide FIA) assays according to the procedure described below. The assays were conducted by, Division of Cell Engineering, Biomedical Engineering Research Laboratories, Industrial Technology Research Institute, Bldg. 53, 195, sec. 4, Chung Hsing Rd. Chutung, Hsinchu, Taiwan 310, R.O.C.
The FLT-3 assay was conducted following the protocol described in Protocol for HTScang FLT-3 Kinase Assay Kit (Cell Signaling Technology®).

For another assay, the target named is T2, c-KIT kinase (Homo sapiens, UniProt P10721).
T2 construct: human c-KIT (Thr544-Val976); GST (N); purchased Cell Signaling Technology HTScan c-KIT Kinase Assay Kit; host or cells: baculovirus expression system
T2 sequence (P10721 544-976): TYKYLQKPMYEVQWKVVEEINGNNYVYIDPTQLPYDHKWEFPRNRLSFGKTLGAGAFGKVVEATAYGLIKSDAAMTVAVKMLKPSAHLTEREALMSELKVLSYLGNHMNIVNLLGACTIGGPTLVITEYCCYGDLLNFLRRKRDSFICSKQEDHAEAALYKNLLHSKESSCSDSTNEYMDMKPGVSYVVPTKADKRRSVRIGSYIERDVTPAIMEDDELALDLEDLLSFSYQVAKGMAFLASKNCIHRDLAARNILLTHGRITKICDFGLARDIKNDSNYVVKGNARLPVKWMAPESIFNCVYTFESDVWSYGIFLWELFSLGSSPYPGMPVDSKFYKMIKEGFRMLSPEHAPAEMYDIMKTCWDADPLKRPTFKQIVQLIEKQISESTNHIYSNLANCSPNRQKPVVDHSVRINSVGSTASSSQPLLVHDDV
In words: c-KIT kinase DELFIA assay (HTScan c-KIT Kinase Assay Kit). It counts as biochemical. Particulars: 20 uM ATP; for inhibition at 0.1 µM: 0.1 uM compound; for inhibition at 1 µM: 1 uM compound. The protocol: as §1
The c-KIT assay was conducted following the protocol described in Protocol for HTScan® c-KIT Kinase Assay Kit (Cell Signaling Technology®).

By IC50 is commonly meant the midpoint of a concentration-inhibition curve. By inhibition is commonly meant the percentage by which the read-out fell short of the control. High values mean strong suppression, low ones little suppression. Regarding `O=c1[nH]c2cccccc-2c1-c1nc2ccccc2[nH]1` [Compound A1, 3-(benzimidazol-2-yl)-1-azaazulen-2-one, reference compound], the IC50 in assay [1] is roughly 1000 nM. At FLT-3 kinase, this compound showed an inhibition at 0.1 µM of 11.5% and an inhibition at 1 µM of 59.4%. Further, at c-KIT kinase, at 0.1 µM the inhibition was 34.1% and testing at 1 µM gave an inhibition of 64.5%.
In the same order, the values of `Nc1ncnc2[nH]c(-c3c4cccccc-4[nH]c3=O)nc12` [Compound B11] are 1000 to 5000 nM, 12.5%, 27.3%, 15.1% and 43.7%.
Regarding `COc1ccc2nc(-c3c4cccccc-4[nH]c3=O)cn2c1` [Compound B14], the concentration for half-maximal inhibition (IC50) in assay [1] was 1000 to 5000 nM. On FLT-3 kinase, this compound showed an inhibition at 1 µM of 9.6%. On c-KIT kinase, this compound returned an inhibition at 0.1 µM of 20.1% and an inhibition at 1 µM of 39.4%.
Consider `O=c1[nH]c2cccccc-2c1-c1nc2cc(N3CCCN(c4ccncc4)CC3)ccc2[nH]1` [Compound B93], for which the IC50 in assay [1] is 129 nM. Further, at FLT-3 kinase, the inhibition at 0.1 µM was determined as 44.2% and the inhibition at 1 µM is 89.4%.
The like results for `O=c1[nH]c2cccccc-2c1-c1nc2cc(N3CCCN(c4cccc(Cl)n4)CC3)ccc2[nH]1` [Compound B96] were, in that order, 1000 to 5000 nM, 10.9% and 35.7%.
Take `O=c1[nH]c2cccccc-2c1-c1nc2cc(N3CCCN(c4ncccn4)CC3)ccc2[nH]1` [Compound B98]: the half-inhibitory concentration (IC50) in assay [1] amounted to 418 nM. Also, on FLT-3 kinase, testing at 0.1 µM gave an inhibition of 17.8% and the inhibition at 1 µM came to 69.5%.
The like results for `O=c1[nH]c2cccccc-2c1-c1nc2cc(N3CCCN(c4cnccn4)CC3)ccc2[nH]1` [Compound B99] were, in that order, 600 nM, 17% and 51.8%.
The like results for `Cc1ccc(N2CCCN(c3ccc4[nH]c(-c5c6cccccc-6[nH]c5=O)nc4c3)CC2)nn1` [Compound B100] were, in that order, 1000 to 5000 nM, 9.1% and 20.2%.
In the case of `CN(C)C1CCN(c2ccc3[nH]c(-c4c5cccccc-5[nH]c4=O)nc3c2)CC1` [Compound B101], the IC50 in assay [1] was 39.7 nM. At FLT-3 kinase, this compound registered an inhibition at 0.1 µM of 46.8% and an inhibition at 1 µM of 90.7%.
Take `O=c1[nH]c2cccccc-2c1-c1nc2cc(N3CCC(N4CCCCC4)CC3)ccc2[nH]1` [Compound B102]: the half-maximal inhibitory concentration (IC50) in assay [1] worked out at 115 nM. At FLT-3 kinase, this compound came in with an inhibition at 0.1 µM of 22.8% and an inhibition at 1 µM of 67.8%.
In the same order, the values of `O=c1[nH]c2cccccc-2c1-c1nc2cc(N3CCC(N4CCOCC4)CC3)ccc2[nH]1` [Compound B103] are 42 nM, 36.5% and 87.4%.
In the same order, the values of `O=c1[nH]c2cccccc-2c1-c1nc2cc(N3CCC(N4CCCC4)CC3)ccc2[nH]1` [Compound B104] are 69.1 nM, 28.3% and 84.1%.
The like results for `CN1CCN(C2CCN(c3ccc4[nH]c(-c5c6cccccc-6[nH]c5=O)nc4c3)CC2)CC1` [Compound B105] were, in that order, 177 nM, 38.7% and 86%.
Regarding `CCC1CCN(c2ccc3[nH]c(-c4c5cccccc-5[nH]c4=O)nc3c2)CC1` [Compound B106], the half-maximal inhibitory concentration (IC50) in assay [1] came out at 315 nM. At FLT-3 kinase, 0.1 µM produced 24.2% inhibition and the inhibition at 1 µM came out at 76.2%.
In the same order, the values of `NC(=O)C1CCN(c2ccc3[nH]c(-c4c5cccccc-5[nH]c4=O)nc3c2)CC1` [Compound B108] are 89.1 nM, 16% and 86.5%.
In the same order, the values of `CCOCC1CCN(c2ccc3[nH]c(-c4c5cccccc-5[nH]c4=O)nc3c2)CC1` [Compound B109] are roughly 1000 nM, 17.3% and 35.2%.
The like results for `O=c1[nH]c2cccccc-2c1-c1nc2cc(N3CCOCC3)ccc2[nH]1` [Compound B111] were, in that order, 169 nM, 24.5% and 75%.
Consider `CN1CCN(S(=O)(=O)c2ccc3[nH]c(-c4c5cccccc-5[nH]c4=O)nc3c2)CC1` [Compound B112], for which, in assay [1], the IC50 fell in the range of 1000 to 5000 nM. At FLT-3 kinase, the inhibition at 0.1 µM worked out at 9.5% and the inhibition at 1 µM was found to be 21.3%.
For the compound `CN1CCCN(S(=O)(=O)c2ccc3[nH]c(-c4c5cccccc-5[nH]c4=O)nc3c2)CC1` [Compound B113], the IC50 in assay [1] is 100 to 500 nM. On FLT-3 kinase, this compound registered an inhibition at 0.1 µM of 14.8% and an inhibition at 1 µM of 42%.
In the same order, the values of `O=C(c1ccccc1)c1ccc2[nH]c(-c3c4cccccc-4[nH]c3=O)nc2c1` [Compound B114] are 1000 to 5000 nM, 10% and 16.3%.
The like results for `O=c1[nH]c2cccccc-2c1-c1nc2cc(-n3ccnc3)ccc2[nH]1` [Compound B115] were, in that order, 306 nM, 25.4% and 72.7%.
In the case of `O=C(Nc1ccc2[nH]c(-c3c4cccccc-4[nH]c3=O)nc2c1)Nc1cc(C(F)(F)F)ccc1F` [Compound B119], the half-maximal inhibitory concentration (IC50) in assay [1] is 100 to 500 nM. At FLT-3 kinase, this compound gave an inhibition at 0.1 µM of 32% and an inhibition at 1 µM of 44.6%.
In the same order, the values of `O=C(Nc1ccc2[nH]c(-c3c4cccccc-4[nH]c3=O)nc2c1)Nc1cc(F)ccc1F` [Compound B120] are 676 nM, 10.2% and 10.1%.
In the same order, the values of `O=C(Nc1ccc(F)c(Cl)c1)Nc1ccc2[nH]c(-c3c4cccccc-4[nH]c3=O)nc2c1` [Compound B130] are 1000 to 5000 nM, 8.6% and 24%.
Take `O=C(Nc1ccc2[nH]c(-c3c4cccccc-4[nH]c3=O)nc2c1)Nc1ccccc1C(F)(F)F` [Compound B131]: the half-inhibitory concentration (IC50) in assay [1] lay in the range of 1000 to 5000 nM. At FLT-3 kinase, this compound returned an inhibition at 0.1 µM of 7.9% and an inhibition at 1 µM of 7.3%.
The like results for `O=C(Nc1cccc(C(F)(F)F)c1)Nc1ccc2[nH]c(-c3c4cccccc-4[nH]c3=O)nc2c1` [Compound B132] were, in that order, 580 nM, 47.5% and 72.4%.
`O=C(Nc1ccc(C(F)(F)F)cc1)Nc1ccc2[nH]c(-c3c4cccccc-4[nH]c3=O)nc2c1` [Compound B133]: the half-inhibitory concentration (IC50) in assay [1] fell in the range of 100 to 500 nM. In addition, on FLT-3 kinase, the inhibition at 0.1 µM is 30.5% and the inhibition at 1 µM is 53.3%.
`O=C(Nc1cc(C(F)(F)F)cc(C(F)(F)F)c1)Nc1ccc2[nH]c(-c3c4cccccc-4[nH]c3=O)nc2c1` [Compound B134]: the half-inhibitory concentration (IC50) in assay [1] amounted to 670 nM. Also, on FLT-3 kinase, the inhibition at 0.1 µM stood at 36.8% and the inhibition at 1 µM worked out at 57.3%.
In the same order, the values of `O=C(Nc1ccc2[nH]c(-c3c4cccccc-4[nH]c3=O)nc2c1)Nc1cc(C(F)(F)F)ccc1Cl` [Compound B135] are 626 nM, 41.4% and 62%.
In the same order, the values of `O=C(Nc1ccc2[nH]c(-c3c4cccccc-4[nH]c3=O)nc2c1)Nc1ccc(Cl)cc1C(F)(F)F` [Compound B136] are 1000 to 5000 nM, 21% and 70.8%.
`COc1ccccc1NC(=O)Nc1ccc2[nH]c(-c3c4cccccc-4[nH]c3=O)nc2c1` [Compound B137]: the IC50 in assay [1] was in the range of 50 to 100 nM. In addition, at FLT-3 kinase, the inhibition at 0.1 µM was 14.3% and the inhibition at 1 µM came out at 19%.
On to `COc1cccc(NC(=O)Nc2ccc3[nH]c(-c4c5cccccc-5[nH]c4=O)nc3c2)c1` [Compound B138], for which the IC50 in assay [1] came to 718 nM. On FLT-3 kinase, this compound gave an inhibition at 0.1 µM of 35.6% and an inhibition at 1 µM of 58.1%.
